These results are taken from publication PMC10720248 (Frontiers in Chemistry, 2023).

The assay concerns TLBro. To be noted: pH 8.0, 37°C, 10 mM Tris-HCl, 100 mM NaCl, 10 mM CaCl2.

One may read the Km as the substrate concentration at which the rate is half of its maximum. For the molecule `N=C(N)NCCCC(NC(=O)c1ccccc1)C(=O)Nc1ccc([N+](=O)[O-])cc1` (racemic) [DL-BAρNA, N-benzoyl-L-arginine-ρ-nitroanilide], the Km turned out to be 850 µM.
